The text below walks through data of patent US20230081539A1, “SUPRACHOROIDAL DELIVERY OF DRUG PARTICLES TO REDUCE TOXICITY” (The Johns Hopkins University, priority 2020, published 2023).

Data set [1] concerns choroidal NV at Bruch's membrane rupture sites. As to the kind of experiment: Mouse CNV model, intravitreous injection of free ACF or PRF. The format is in vivo, C57BL/6 mice. Conditions: mice, 1 μl intravitreous injection of 50 ng immediately after rupture of Bruch's membrane, read after seven days. As to the method:
Seven days after rupture of Bruch's membrane, mice were euthanized, eyecups were fixed and stained with FITC-labeled Griffonia Simplicifolia lectin (GSA, Vector Laboratories, Burlingame, Calif.), and flat mounted. The area of choroidal NV at each Bruch's membrane rupture site was measured by image analysis by an observer masked with respect to treatment group. The area of choroidal NV at the 3 rupture sites in one eye was averaged to give one experimental value for each animal. […] One week after rupture of Bruch's membrane, choroidal flat mounts were stained with FITC-Griffonia simplicifolia lectin.

Data set [2] deals with HIF-2 (Homo sapiens, UniProt Q99814). Conditions: in vitro; cited from earlier work.
Sequence of HIF-2 (Q99814 whole entry): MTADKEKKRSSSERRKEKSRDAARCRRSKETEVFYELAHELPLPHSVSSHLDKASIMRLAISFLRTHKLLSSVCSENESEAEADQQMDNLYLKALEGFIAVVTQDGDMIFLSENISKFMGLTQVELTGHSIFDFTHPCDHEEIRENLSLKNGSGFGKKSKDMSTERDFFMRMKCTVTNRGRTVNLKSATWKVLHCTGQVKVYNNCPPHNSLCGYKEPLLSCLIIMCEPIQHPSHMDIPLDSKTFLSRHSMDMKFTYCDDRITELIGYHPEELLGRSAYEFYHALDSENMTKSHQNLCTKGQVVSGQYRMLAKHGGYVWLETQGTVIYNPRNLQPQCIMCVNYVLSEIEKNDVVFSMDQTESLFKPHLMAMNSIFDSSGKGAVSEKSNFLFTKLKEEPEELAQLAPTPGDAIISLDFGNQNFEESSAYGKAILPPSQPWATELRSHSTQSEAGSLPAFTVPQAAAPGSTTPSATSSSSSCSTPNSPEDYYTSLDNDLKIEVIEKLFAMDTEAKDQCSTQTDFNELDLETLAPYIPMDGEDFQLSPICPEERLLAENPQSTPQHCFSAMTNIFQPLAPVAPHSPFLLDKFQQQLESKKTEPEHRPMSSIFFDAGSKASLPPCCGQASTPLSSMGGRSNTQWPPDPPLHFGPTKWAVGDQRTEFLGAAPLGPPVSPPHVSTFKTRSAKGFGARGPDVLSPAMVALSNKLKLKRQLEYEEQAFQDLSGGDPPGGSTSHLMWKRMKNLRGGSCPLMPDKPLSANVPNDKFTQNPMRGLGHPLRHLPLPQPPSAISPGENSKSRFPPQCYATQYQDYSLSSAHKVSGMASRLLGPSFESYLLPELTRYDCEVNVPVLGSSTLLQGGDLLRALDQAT
Data set [3] deals with HIF-1 (Homo sapiens, UniProt Q16665). Conditions: in vitro; cited from earlier work.
Sequence of HIF-1 (Q16665 whole entry): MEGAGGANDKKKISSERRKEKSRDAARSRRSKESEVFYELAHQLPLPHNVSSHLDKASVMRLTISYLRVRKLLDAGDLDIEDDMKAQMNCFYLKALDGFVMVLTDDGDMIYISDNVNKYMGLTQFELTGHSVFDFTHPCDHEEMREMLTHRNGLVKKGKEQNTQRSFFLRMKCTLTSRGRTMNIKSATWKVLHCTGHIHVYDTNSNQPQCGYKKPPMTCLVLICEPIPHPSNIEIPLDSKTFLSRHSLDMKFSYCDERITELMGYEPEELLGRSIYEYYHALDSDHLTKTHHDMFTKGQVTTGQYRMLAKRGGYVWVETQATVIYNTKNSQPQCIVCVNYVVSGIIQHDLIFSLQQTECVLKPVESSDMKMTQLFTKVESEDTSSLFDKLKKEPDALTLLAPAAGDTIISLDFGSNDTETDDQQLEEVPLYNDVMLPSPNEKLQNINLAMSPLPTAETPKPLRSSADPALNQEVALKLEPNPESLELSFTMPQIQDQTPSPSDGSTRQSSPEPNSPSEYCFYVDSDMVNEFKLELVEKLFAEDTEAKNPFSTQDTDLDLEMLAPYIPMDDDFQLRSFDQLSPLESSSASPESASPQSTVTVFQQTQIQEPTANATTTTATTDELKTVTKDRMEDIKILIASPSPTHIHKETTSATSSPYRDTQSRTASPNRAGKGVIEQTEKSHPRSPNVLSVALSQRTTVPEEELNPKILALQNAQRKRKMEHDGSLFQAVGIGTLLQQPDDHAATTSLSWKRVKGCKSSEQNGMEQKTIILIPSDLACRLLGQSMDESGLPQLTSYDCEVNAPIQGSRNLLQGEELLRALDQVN
Data set [4] can be described thus: Pharmacokinetics in rats: TRF and PRF in ocular tissues by LC-MS/MS after suprachoroidal PLGA-ACF MPs.
Protocol: The injection site was marked in each eye. Six rats were euthanized at each of the following time points after injection: 1 and 2 weeks, and 1, 2, 3, and 4 months. After removal of the anterior segment and lens of each eye, the retina and RPE/choroid/sclera were dissected and cut in half along the horizontal meridian through the optic nerve head and frozen separately. Samples were analyzed for acriflavine and proflavine by liquid chromatography with tandem mass spectrometry (LC-MS/MS). Tissue samples were homogenized in 200 μl of methanol and homogenized with Next Advance Bullet Blender. The analytes were extracted from 25 μl of homogenized tissue with 250 μl of acetonitrile containing internal standard (5 ng/ml of acridine orange). Samples were centrifuged and the top layer was transferred to an auto sampler vial for LC/MS/MS analysis.
Mobile phase A was water containing 0.1% formic acid and mobile phase B was acetonitrile containing 0.1% formic acid. The gradient started with mobile phase B held at 50% for 1 minute and increased to 100% over 0.5 minutes; 100% mobile phase B was held for 1.5 minutes and then returned back to 50% mobile phase B and allowed to equilibrate for 1 minute. […] The column effluent was monitored using a Sciex 4500 triple quadrupole mass spectrometer with electrospray ionization operating in positive mode. […]

“3,6-diamino-10-methylacridinium chloride mixed with 3,6-acridinediamine [ACF]”: in data set [1], the “area of CNV at Bruch's membrane rupture sites compared with PBS” value is “statistically significant reduction”. In data set [2], the “concentration that inhibits the transcriptional activity of HIF-2” value is recorded as “nanomolar”. In data set [3], the “concentration that inhibits the transcriptional activity of HIF-1” value is listed as “nanomolar”.

Turning to `Nc1ccc2cc3ccc(N)cc3nc2c1` [PRF, proflavine], the “area of CNV at Bruch's membrane rupture sites compared with PBS” value in data set [1] is listed as “almost identical to that of eyes treated with PBS”.

On to `C[n+]1c2cc(N)ccc2cc2ccc(N)cc21.[Cl-]` [TRF, trypaflavine], for which, in data set [4] (suprachoroidal PLGA-ACF MPs), the “duration of steady-state levels in the low nM range in RPE/choroid and retina” value was “at least 16 weeks”. In addition, the “steady-state level in inferior retina” value in data set [4] (suprachoroidal PLGA-ACF MPs containing 10 μg ACF, 2 through 16 weeks) is approximately 0.1 nM.

Turning to `C[C@H]1O[C@@H](O[C@H]2[C@@H](O)C[C@H](O[C@H]3[C@@H](O)C[C@H](O[C@H]4CC[C@@]5(C)[C@H](CC[C@@H]6[C@@H]5C[C@@H](O)[C@]5(C)[C@@H](C7=CC(=O)OC7)CC[C@]65O)C4)O[C@@H]3C)O[C@@H]2C)C[C@H](O)[C@@H]1O` [digoxin], the “concentration that inhibits the transcriptional activity of HIF-2” value in data set [2] is “nanomolar”.

For the compound `C[C@@H]1O[C@@H](O[C@H]2C[C@@H](O)[C@]3(CO)[C@H]4[C@H](O)C[C@]5(C)[C@@H](C6=CC(=O)OC6)CC[C@]5(O)[C@@H]4CC[C@]3(O)C2)[C@H](O)[C@H](O)[C@H]1O` [ouabain], in data set [2], the “concentration that inhibits the transcriptional activity of HIF-2” value is reported as “nanomolar”.

On to `C[C@@H]1O[C@@H](O[C@@H]2C=C3CC[C@@H]4[C@H](CC[C@]5(C)[C@@H](c6ccc(=O)oc6)CC[C@]45O)[C@@]3(C)CC2)[C@H](O)[C@H](O)[C@H]1O` [proscillaridin A], for which the “concentration that inhibits the transcriptional activity of HIF-2” value in data set [2] is listed as “nanomolar”. Besides, the “concentration that inhibits the transcriptional activity of HIF-1” value in data set [3] was “nanomolar”.
